Reference: patent US10562888B2, “Crystalline FGFR4 inhibitor compound and uses thereof” (Eisai R&D Management Co., Ltd., priority 2015, dated 2020)
≈ marks a conversion by molar mass, not a printed value.

Assay: Solubility in 0.1 N HCl
Type: physicochemical
Details: simulated gastric fluid

For `C=CC(=O)Nc1cc(N2CCN(CC)CC2)ccc1Nc1cc(N(C)C(=O)Nc2c(Cl)c(OC)cc(OC)c2Cl)ncn1` [Compound 108, N-(2-((6-(3-(2,6-dichloro-3,5-dimethoxyphenyl)-1-methylureido)pyrimidin-4-yl)amino)-5-(4-ethylpiperazin-1-yl)phenyl)acrylamide], the solubility was 5200 µg/mL (≈ 8.26 mM).
